{"source": "patent US20190029987A1", "about": "“DIMETHYL FUMARATE (DMF) FOR PREVENTION OR TREATMENT OF GOUT, ACNE, DIABETES, VITILIGO AND/OR PYODERMA GANGRENOSUM” (UNIVERSITAT ZURICH, priority 2016, published 2019)", "key": {"[1]": {"tested_on": "Nrf2", "experiment": "UVB-induced Nrf2 degradation in HPKs (Western blot)", "format": "cell-based, human", "settings": "1 μM for 10 min, harvested after 1 h, FIG. 7D", "text": "Next, the inventors investigated the activity of Nrf2 upon activation of the NLRP3 inflammasome, since inflammasome activation is ROS-dependent. […] This is surprising, since UVB irradiation is a strong inducer of ROS production and it can be anticipated that the cells would benefit from Nrf2 activation. UVB-induced secretion by HPKs requires expression of NLRP1 and NLRP3 [21]. Both nigericin and MSU crystals are considered as “true” NLRP3 activators, but HPKs cannot phagocytose MSU crystals. Therefore, the inventors treated HPKs with nigericin only and THP-1 cells with either of these NLRP3 activators. […] Therefore, NLRP3 inflammasome activation most likely induces Nrf2 protein degradation. […] However, inflammasome activation-induced Nrf2 degradation was blocked upon ablation of ASC or NLRP3 expression (FIG. 4G) and upon treatment of cells with the ROS blocker PDTC or the Ca2+ chelator BAPTA-AM (Supplementary FIG. 2D). […] However, inflammasome function was not impaired, as reflected by normal processing of pro-IL-18 (FIG. 4H). Although Keap1 expression is partially dispensable for Nrf2 degradation by inflammasome activation, the transcription factor is directed to the proteasome under these conditions, since Nrf2 degradation was inhibited by the proteasome inhibitor MG132 (FIG. 4I and FIG. 7D).\nFIG. 7: (A-C) HPKs were transfected with siRNAs for 3 d as indicated. Scrambled (scr) siRNA and siRNA targeting the unrelated vascular endothelial growth factor (VEGF) served as controls. Western blots of (A) total lysates or (B) nuclear and cytoplasmic lysates and (C) qRT-PCR for expression of target gene expression. (D) HPKs were treated with MG132 (1 μM), PDTC (500 μM) or BAPTA-AM (12.5 μM) for 10 min and harvested (before UV) or irradiated with UVB and harvested after 1 h. Western blots showing expression of Nrf2. (E) Differentiated and primed THP-1 cells were pretreated with cycloheximide (CHX, 30 μg/ml) for 1 h before priming cells with upLPS overnight. Western blots show expression of the indicated proteins. […] Statistics: (C) Mann-Whitney test, related to scr control. *P≤0.05"}, "[2]": {"tested_on": "Nrf2", "experiment": "Nigericin-induced Nrf2 degradation in THP-1 cells (Western blot)", "format": "cell-based, human", "settings": "THP-1, nigericin 5 μM, 1 μM added after 1 h, harvested after 2.5 h, FIG. 4I", "text": "Next, the inventors investigated the activity of Nrf2 upon activation of the NLRP3 inflammasome, since inflammasome activation is ROS-dependent. […] This is surprising, since UVB irradiation is a strong inducer of ROS production and it can be anticipated that the cells would benefit from Nrf2 activation. UVB-induced secretion by HPKs requires expression of NLRP1 and NLRP3 [21]. Both nigericin and MSU crystals are considered as “true” NLRP3 activators, but HPKs cannot phagocytose MSU crystals. Therefore, the inventors treated HPKs with nigericin only and THP-1 cells with either of these NLRP3 activators. […] Therefore, NLRP3 inflammasome activation most likely induces Nrf2 protein degradation. […]\n(A-C) HPKs were irradiated with (A) UVB or treated with (B) nigericin (5 μM) and cells and supernatants were harvested at different time points as indicated. […] (C) Expression of Nrf2 and Nrf2 target genes was determined by qRT-PCR. […] Cells and supernatants were harvested at different time points as indicated and analysed for (D) expression and activation of the proteins as indicated by Western blot and (E) expression of Nrf2 and Nrf2 target genes by qRT-PCR. […] Cells were harvested after 1 h or 5 h, and lysates were analysed for the expression of the indicated proteins by Western blot. […] (G) Nrf2 expression related to the indicated background band was quantified from the Western blot. […]"}}, "note": "Peptide text beside a SMILES is read from it. * marks the point of attachment. Cbz = O=C(OCc1ccccc1)*", "data": [{"smiles": "CC(C)C[C@@H](C=O)NC(=O)[C@H](CC(C)C)NC(=O)[C@H](CC(C)C)NC(=O)OCc1ccccc1", "note": "[MG132] (Cbz-Leu-Leu-Leu-aldehyde)", "values": [{"measurement": "inflammasome activation-induced Nrf2 degradation", "setting": "[1]", "value": "inhibited"}, {"measurement": "inflammasome activation-induced Nrf2 degradation", "setting": "[2]", "value": "inhibited"}]}]}
